For this assay, the target named is E3 ubiquitin-protein ligase XIAP (Homo sapiens, UniProt P98170). The assay can be described thus: Dissociation constant against BIR3 domain of X-linked IAP in fluorescence polarization anisotropy competition assay. Background: Fluorescence polarisation rises when a labelled molecule tumbles more slowly, as on binding a larger partner.

pKd: −log10 of the molar value.

E3 ubiquitin-protein ligase XIAP, sequence (P98170 whole entry, the tested form may be a part): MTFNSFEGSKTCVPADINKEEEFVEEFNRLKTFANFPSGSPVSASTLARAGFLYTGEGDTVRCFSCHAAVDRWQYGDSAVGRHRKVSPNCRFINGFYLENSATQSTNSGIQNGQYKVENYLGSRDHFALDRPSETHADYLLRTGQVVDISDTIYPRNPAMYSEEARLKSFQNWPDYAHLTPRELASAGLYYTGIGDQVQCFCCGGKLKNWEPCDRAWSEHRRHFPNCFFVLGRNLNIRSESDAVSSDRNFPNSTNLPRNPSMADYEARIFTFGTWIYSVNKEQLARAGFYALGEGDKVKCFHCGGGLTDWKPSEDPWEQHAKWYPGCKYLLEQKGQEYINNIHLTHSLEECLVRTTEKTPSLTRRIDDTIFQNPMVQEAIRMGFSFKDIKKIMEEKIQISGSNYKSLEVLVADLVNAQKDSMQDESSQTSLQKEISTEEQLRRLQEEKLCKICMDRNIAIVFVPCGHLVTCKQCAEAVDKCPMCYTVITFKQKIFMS

For the compound `C[C@H](N)C(=O)Nc1nc(-c2cccc(Cc3ccccc3)c2)c(Cc2ccccc2)s1`, the negative-log Kd (pKd) – broadly, the Kd on a negative log10 scale, so that one unit is a factor of ten – is less than 4.00.

The record behind these values is ChEMBL document CHEMBL1144301, “Non-peptidic small molecule inhibitors of XIAP” (Bioorg Med Chem Lett, 2005).
